Laboratory results published in ChEMBL document CHEMBL5321200, “Discovery of the GSH responsive "Y-PROTACs" targeting ALK and CDK4/6 as a potential treatment for cancer” (Eur J Med Chem, 2023).
Active and inactive are the calls of the source. The rule behind the calls is not given here.

Legend:
NCI-H1299 = assay: Antiproliferative activity against human NCI-H1299 cells assessed as inhibition of cell growth incubated for 3 to 5 days by MTT assay; format: functional, cell-based
[1] = Cytotoxicity against human L02 cells assessed as inhibition of cell growth incubated for 3 to 5 days by MTT assay; format: toxicity, cell-based
[2] = target: T1, Protein cereblon/Cyclin-dependent kinase 4 (Homo sapiens, UniProt P11802+Q96SW2); assay: PROTAC activity at CRBN/CDK4 in human NCI-H2228 cells assessed as reduction in CDK4 protein level by Western blot analysis; format: cell-based
T1 sequence (P11802 2-303 limits assumed): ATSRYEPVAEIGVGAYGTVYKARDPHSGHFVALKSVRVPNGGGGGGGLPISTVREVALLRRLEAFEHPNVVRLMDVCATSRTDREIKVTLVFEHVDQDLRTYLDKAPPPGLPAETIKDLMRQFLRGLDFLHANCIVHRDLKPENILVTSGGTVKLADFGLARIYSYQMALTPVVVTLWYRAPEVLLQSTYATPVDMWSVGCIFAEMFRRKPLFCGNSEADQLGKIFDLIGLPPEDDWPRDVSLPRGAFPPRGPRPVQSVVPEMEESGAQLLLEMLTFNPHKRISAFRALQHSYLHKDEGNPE
T1 sequence (Q96SW2 whole entry partner): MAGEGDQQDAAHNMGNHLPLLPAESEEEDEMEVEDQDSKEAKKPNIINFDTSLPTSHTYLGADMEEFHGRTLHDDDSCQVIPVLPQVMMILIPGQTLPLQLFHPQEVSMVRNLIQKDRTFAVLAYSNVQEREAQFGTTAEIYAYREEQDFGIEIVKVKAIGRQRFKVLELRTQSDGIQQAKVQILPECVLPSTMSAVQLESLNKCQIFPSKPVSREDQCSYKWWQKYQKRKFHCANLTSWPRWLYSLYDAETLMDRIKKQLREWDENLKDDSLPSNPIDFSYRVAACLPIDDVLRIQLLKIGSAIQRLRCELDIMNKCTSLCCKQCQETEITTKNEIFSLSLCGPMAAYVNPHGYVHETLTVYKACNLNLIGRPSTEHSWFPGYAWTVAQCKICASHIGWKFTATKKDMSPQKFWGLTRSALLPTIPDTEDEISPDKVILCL

[3] = target: Protein cereblon/Cyclin-dependent kinase 6 (Homo sapiens) (UniProt Q00534+Q96SW2); assay: PROTAC activity at CRBN/CDK6 in human NCI-H2228 cells assessed as reduction in CDK6 protein level by Western blot analysis; format: cell-based
Sequence of Protein cereblon/Cyclin-dependent kinase 6 (Homo sapiens) (Q00534 whole entry, looked up, the tested form may be a part): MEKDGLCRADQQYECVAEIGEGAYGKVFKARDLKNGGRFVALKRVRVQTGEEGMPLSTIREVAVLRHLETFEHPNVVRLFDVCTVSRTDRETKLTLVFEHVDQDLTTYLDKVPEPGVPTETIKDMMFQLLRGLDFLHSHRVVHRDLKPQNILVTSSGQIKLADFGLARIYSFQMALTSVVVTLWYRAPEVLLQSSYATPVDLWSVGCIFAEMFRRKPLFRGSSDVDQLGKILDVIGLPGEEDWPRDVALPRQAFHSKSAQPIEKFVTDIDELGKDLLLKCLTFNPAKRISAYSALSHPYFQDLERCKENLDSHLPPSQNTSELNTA
Sequence of Protein cereblon/Cyclin-dependent kinase 6 (Homo sapiens) (Q96SW2 whole entry, looked up, the tested form may be a part): as the sequence (Q96SW2 whole entry partner) above

[4] = target: T2, Protein cereblon/ALK tyrosine kinase receptor/Echinoderm microtubule-associated protein-like 4 (Homo sapiens) (UniProt Q9UM73+Q9HC35+Q96SW2); assay: PROTAC activity at CRBN/EML4-ALK in human NCI-H3122 cells assessed as reduction in EML4-ALK fusion protein level at 0.1 to 20 uM incubated for 24 hrs in presence of GSH by Western blot analysis; format: cell-based; conditions: dose 0.1-20 µM
T2 sequence (Q96SW2 whole entry partner, the tested form may be a part): as the sequence (Q96SW2 whole entry partner) above
T2 sequence (Q9HC35 whole entry partner, the tested form may be a part): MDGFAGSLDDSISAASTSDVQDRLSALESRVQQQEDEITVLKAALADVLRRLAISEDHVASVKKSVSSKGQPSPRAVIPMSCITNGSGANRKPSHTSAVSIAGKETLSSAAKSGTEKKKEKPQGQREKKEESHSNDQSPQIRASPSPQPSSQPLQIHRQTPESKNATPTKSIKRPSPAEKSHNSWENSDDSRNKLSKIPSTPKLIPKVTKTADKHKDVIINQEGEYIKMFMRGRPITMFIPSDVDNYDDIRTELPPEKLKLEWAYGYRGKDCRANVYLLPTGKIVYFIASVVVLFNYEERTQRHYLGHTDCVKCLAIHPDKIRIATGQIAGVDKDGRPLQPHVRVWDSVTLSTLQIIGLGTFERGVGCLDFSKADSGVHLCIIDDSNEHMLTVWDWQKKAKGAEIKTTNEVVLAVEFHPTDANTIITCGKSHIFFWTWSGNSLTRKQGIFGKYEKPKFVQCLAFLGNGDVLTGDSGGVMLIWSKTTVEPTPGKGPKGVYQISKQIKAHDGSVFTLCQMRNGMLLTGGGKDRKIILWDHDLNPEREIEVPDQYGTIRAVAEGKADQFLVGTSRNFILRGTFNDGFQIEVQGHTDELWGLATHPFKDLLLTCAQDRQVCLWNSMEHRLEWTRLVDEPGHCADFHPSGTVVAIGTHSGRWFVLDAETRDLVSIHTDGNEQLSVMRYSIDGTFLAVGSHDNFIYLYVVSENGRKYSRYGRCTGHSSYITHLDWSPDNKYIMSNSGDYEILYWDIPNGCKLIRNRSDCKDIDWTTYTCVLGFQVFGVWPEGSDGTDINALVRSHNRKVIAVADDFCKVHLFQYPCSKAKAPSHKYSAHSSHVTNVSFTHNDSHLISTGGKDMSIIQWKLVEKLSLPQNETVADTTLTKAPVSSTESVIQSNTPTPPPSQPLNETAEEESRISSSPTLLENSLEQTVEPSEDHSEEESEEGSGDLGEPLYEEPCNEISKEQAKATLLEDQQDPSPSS
T2 sequence (Q9UM73 19-1620 limits assumed): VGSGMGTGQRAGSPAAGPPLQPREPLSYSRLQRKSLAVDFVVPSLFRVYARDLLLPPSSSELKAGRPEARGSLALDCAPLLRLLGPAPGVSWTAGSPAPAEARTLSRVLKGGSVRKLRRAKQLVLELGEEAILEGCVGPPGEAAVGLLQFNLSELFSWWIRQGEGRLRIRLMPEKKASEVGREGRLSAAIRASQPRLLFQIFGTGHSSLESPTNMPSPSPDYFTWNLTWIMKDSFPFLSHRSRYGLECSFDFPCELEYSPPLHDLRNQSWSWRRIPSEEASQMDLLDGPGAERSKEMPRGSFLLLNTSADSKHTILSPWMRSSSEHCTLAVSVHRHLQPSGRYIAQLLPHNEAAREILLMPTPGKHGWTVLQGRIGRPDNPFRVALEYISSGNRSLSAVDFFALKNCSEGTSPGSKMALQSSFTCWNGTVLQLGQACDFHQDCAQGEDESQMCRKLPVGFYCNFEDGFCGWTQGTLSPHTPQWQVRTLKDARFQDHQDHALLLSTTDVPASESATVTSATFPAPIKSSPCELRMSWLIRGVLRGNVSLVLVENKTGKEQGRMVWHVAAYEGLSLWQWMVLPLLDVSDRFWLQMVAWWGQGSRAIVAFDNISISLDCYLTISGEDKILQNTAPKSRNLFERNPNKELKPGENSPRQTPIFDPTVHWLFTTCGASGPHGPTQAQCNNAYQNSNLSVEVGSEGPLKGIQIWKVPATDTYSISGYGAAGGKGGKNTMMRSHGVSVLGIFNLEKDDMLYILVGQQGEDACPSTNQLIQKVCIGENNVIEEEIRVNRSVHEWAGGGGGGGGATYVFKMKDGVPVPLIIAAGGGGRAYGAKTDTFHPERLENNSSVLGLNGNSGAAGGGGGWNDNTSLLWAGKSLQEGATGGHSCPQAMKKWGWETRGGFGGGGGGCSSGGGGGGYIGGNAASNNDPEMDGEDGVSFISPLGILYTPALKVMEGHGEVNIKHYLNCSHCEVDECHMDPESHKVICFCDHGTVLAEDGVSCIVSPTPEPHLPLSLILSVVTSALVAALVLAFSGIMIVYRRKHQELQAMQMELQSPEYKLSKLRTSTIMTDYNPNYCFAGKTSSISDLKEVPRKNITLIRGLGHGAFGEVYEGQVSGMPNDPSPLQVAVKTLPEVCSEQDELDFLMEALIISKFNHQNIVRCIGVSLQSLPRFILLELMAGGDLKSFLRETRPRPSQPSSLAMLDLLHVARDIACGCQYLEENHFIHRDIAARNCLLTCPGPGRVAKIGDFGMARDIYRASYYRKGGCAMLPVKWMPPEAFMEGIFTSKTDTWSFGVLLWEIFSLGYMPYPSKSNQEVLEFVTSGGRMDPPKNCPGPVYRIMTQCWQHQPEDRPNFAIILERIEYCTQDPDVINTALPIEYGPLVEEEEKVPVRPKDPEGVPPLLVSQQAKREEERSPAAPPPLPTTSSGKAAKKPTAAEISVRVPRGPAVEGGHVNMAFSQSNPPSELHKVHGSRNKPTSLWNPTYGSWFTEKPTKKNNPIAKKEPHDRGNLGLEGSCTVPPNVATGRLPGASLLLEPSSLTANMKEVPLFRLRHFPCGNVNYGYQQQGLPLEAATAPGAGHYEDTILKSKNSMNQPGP

[5] = target: T1, Protein cereblon/Cyclin-dependent kinase 4; assay: PROTAC activity at CRBN/CDK4 in human NCI-H3122 cells assessed as decrease in CDK4 protein level at 0.1 to 20 uM incubated for 24 hrs in presence of GSH by Western blot analysis; format: cell-based; conditions: dose 0.1-20 µM
[6] = target: T1, Protein cereblon/Cyclin-dependent kinase 4; assay: PROTAC activity at CRBN/CDK4 in human L02 cells assessed as reduction in CDK4 protein level at 1 to 20 uM incubated for 24 hrs in presence of GSH by Western blot analysis; format: cell-based; conditions: dose 1-20 µM
[7] = target: Cyclin-dependent kinase 6 (Homo sapiens) (UniProt Q00534); assay: Inhibition of CDK6 (unknown origin) at 1 uM by LANCE Ultra TR-FRET assay relative to control
Sequence of Cyclin-dependent kinase 6 (Homo sapiens) (Q00534 whole entry): as the sequence (Q00534 whole entry, looked up, the tested form may be a part) above

[8] = target: T1, Protein cereblon/Cyclin-dependent kinase 4; assay: PROTAC activity at CRBN/CDK4 in human NCI-H3122 cells assessed as induction of CDK4 protein degradation at 5 uM measured after 16 hrs by Western blot analysis; format: cell-based
[9] = target: T1, Protein cereblon/Cyclin-dependent kinase 4; assay: PROTAC activity at CRBN/CDK4 in human NCI-H3122 cells assessed as increase in CDK4 protein level at 5 uM measured after 24 hrs by Western blot analysis; format: cell-based
[10] = target: T2, Protein cereblon/ALK tyrosine kinase receptor/Echinoderm microtubule-associated protein-like 4 (Homo sapiens); assay: PROTAC activity at CRBN/EML4-ALK in human NCI-H3122 cells assessed as reduction in EML4-ALK fusion protein level at 5 uM incubated for 48 hrs followed by compound washout and measured within 16 hrs by Western blot analysis; format: cell-based
[11] = target: Protein cereblon/ALK tyrosine kinase receptor (Homo sapiens) (UniProt Q9UM73+Q96SW2); assay: PROTAC activity at CRBN/ALK in human NCI-H3122 cells assessed as degradation of ALK protein at 5 uM pretreated with ceritinib for 4 hrs followed by compound addition and measured after 24 hrs by Western blot analysis; format: cell-based
Sequence of Protein cereblon/ALK tyrosine kinase receptor (Homo sapiens) (Q96SW2 whole entry partner): as the sequence (Q96SW2 whole entry partner) above
Sequence of Protein cereblon/ALK tyrosine kinase receptor (Homo sapiens) (Q9UM73 19-1620 limits assumed): as the sequence (Q9UM73 19-1620 limits assumed) above

NCI-H3122 [12] = assay: Cell cycle arrest in human NCI-H3122 cells assessed as accumulation of cells at G0/G1 phase at 0.312 uM incubated for 24 hrs by propidium iodide staining based flow cytometric analysis (reference value: 48.68%); format: functional
NCI-H3122 [13] = assay: Cell cycle arrest in human NCI-H3122 cells assessed as G2/M phase cells at 0.312 uM incubated for 24 hrs by propidium iodide staining based flow cytometric analysis (reference value: 20.89%); format: functional
NCI-H3122 [14] = assay: Cell cycle arrest in human NCI-H3122 cells assessed as accumulation of cells at S phase at 0.312 uM incubated for 24 hrs by propidium iodide staining based flow cytometric analysis (reference value: 29.94%); format: functional
NCI-H3122 [15] = assay: Induction of apoptosis in human NCI-H3122 cells assessed as viable cells at 1.25 uM incubated for 48 hrs by Annexin V-FITC/propidium iodide staining based flow cytometric analysis (reference value: 95.66%); format: functional; conditions: read-out: Activity
NCI-H3122 [16] = assay: Induction of apoptosis in human NCI-H3122 cells assessed as early apoptotic cells at 2.5 uM incubated for 48 hrs by Annexin V-FITC/propidium iodide staining based flow cytometric analysis (reference value: 0.71%); format: functional
NCI-H3122 [17] = assay: Induction of apoptosis in human NCI-H3122 cells assessed as late apoptotic cells at 0.625 uM incubated for 48 hrs by Annexin V-FITC/propidium iodide staining based flow cytometric analysis (reference value: 3.06%); format: functional
NCI-H3122 [18] = assay: Induction of apoptosis in human NCI-H3122 cells assessed as late apoptotic cells at 2.5 uM incubated for 48 hrs by Annexin V-FITC/propidium iodide staining based flow cytometric analysis (reference value: 3.06%); format: functional
NCI-H3122 [19] = assay: Induction of apoptosis in human NCI-H3122 cells assessed as necrotic cells at 1.25 uM incubated for 48 hrs by Annexin V-FITC/propidium iodide staining based flow cytometric analysis (reference value: 0.57%); format: functional
NCI-H3122 [20] = assay: Induction of apoptosis in human NCI-H3122 cells assessed as total apoptotic cells at 2.5 uM incubated for 48 hrs by Annexin V-FITC/propidium iodide staining based flow cytometric analysis relative to control; format: functional
NCI-H3122 [21] = assay: Antitumor activity against human NCI-H3122 cells xenografted in BALB/c nude mouse assessed as reduction in tumor volume at 75 mg/kg, IG administered once daily for 18 days and measured after 12 hrs of last dose; format: functional, organism-based; conditions: time 444.0 hrs
Mus musculus = assay: In vivo PROTAC activity at CRBN/EML4-ALK in BALB/c nude mouse xenografted with human NCI-H3122 cells assessed as reduction in EML4-ALK protein expression in tumor at 75 mg/kg, IG administered once daily for 18 days and measured after 12 hrs of last dose by immunohistochemical analysis; format: functional, organism-based; conditions: time 444.0 hrs
[22] = Toxicity in BALB/c nude mouse xenografted with human NCI-H3122 cells assessed as effect on visceral spleen morphology at 75 mg/kg, IG administered once daily for 18 days and measured after 12 hrs of last dose by H and E staining based analysis; format: organism-based; conditions: in vivo, po, 444 h
[23] = Toxicity in BALB/c nude mouse xenografted with human NCI-H3122 cells assessed as effect on lung function at 75 mg/kg, IG administered once daily for 18 days by H and E staining based assay; format: organism-based; conditions: in vivo, po, 432 h, time 18 day
[24] = Toxicity in BALB/c nude mouse xenografted with human NCI-H3122 cells assessed as effect on visceral heart morphology at 75 mg/kg, IG administered once daily for 18 days and measured after 12 hrs of last dose by H and E staining based analysis; format: organism-based; conditions: in vivo, po, 444 h
[25] = Toxicity in BALB/c nude mouse xenografted with human NCI-H3122 cells assessed as effect on heart function at 75 mg/kg, IG administered once daily for 18 days and measured after 12 hrs of last dose by H and E staining based assay; format: organism-based; conditions: in vivo, po, 444 h
[26] = target: T1, Protein cereblon/Cyclin-dependent kinase 4; assay: PROTAC activity at CRBN/CDK4 in human NCI-H3122 cells assessed as induction of CDK4 degradation at 5 uM pretreated with MG132 for 4 hrs followed compound addition and measured after 24 hrs by Western blot analysis; format: cell-based

For `CC(=O)c1c(C)c2cnc(Nc3ccc(N4CCN(CC(=O)NCCSSCCN(CC(=O)NCCNc5cccc6c5C(=O)N(C5CCC(=O)NC5=O)C6=O)C(=O)CCCCCCC(=O)N5CCC(c6cc(OC(C)C)c(Nc7ncc(Cl)c(Nc8ccccc8S(=O)(=O)C(C)C)n7)cc6C)CC5)CC4)cn3)nc2n(C2CCCC2)c1=O` (stereo not drawn), the IC50 (NCI-H1299) was 21.2 µM, the IC50 [1] was 55.3 µM and the Activity [2] was “Active”. The Activity [3] was “inactive”, the Activity [4] was “Active” and the Activity [5] was “inactive”. For the same molecule, the Activity [6] was “inactive”, the inhibition [7] was 97.8% and the Activity [8] was “Active”. For the same molecule, the Activity [9] was “inactive”, the Activity [10] was “Active” and the Activity [11] was “inactive”. It also gave an Activity (NCI-H3122 [12]) of 63.17%, an Activity (NCI-H3122 [13]) of 18.82% and an Activity (NCI-H3122 [14]) of 17.52%. For the same molecule, the viability at 1.25 µM (NCI-H3122 [15]) was 86.6%, the Activity (NCI-H3122 [16]) was 1.35% and the Activity (NCI-H3122 [17]) was 8.32%. It also gave an Activity (NCI-H3122 [18]) of 15.81%, an Activity (NCI-H3122 [19]) of 1.91% and an Activity (NCI-H3122 [20]) of 17.2%. For the same molecule, the Activity (NCI-H3122 [21]) was “Active”, the Activity (Mus musculus) was “Active” and the Activity [22] was “Non-Toxic”. For the same molecule, the Activity [23] was “Non-Toxic”, the Activity [24] was “Non-Toxic” and the Activity [25] was “Non-Toxic”. The Activity [26] was “inactive”.
